Data published in patent US10471046B2, “Method for treating, preventing, or reducing the risk of skin infection” (Melinta Subsidiary Corp., priority 2014, dated 2019).
In brackets after ≈: the same amount, converted by molar mass.

System: S. aureus
Experiment: Minimum inhibitory concentrations (MICs) for S. aureus of exemplary compounds (Table 2)
Type: cell-based
Conditions: Staphylococcus aureus, minimum inhibitory concentrations for S. aureus; read-out: MICs
In short: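 MICs (μg/mL) against S. aureus come from microtiter-tray dilution susceptibility testing per NCCLS M7-A5, comparing growth with and without compound.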

| Compound | MIC |
| --- | --- |
| CC(=O)NC[C@H]1CN(c2ccc(-c3ccc(/C=N/Nc4nccc(C(F)(F)F)n4)cc3)c(F)c2)C(=O)O1 [Compound 2042, N-(3-{2-Fluoro-4′-[(4-trifluoromethyl-pyrimidin-2-yl)-hydrazonomethyl]-biphenyl-4-yl}-2-oxo-oxazolidin-5-(S)-ylmethyl)-acetamide] | 128 µg/mL (≈ 248 µM) |
| CC(=O)NC[C@H]1CN(c2ccc(-c3ccc(CNNc4ccccn4)cc3)c(F)c2)C(=O)O1 [Compound 2048, N-{3-[2-Fluoro-4′-(N′-pyridin-2-yl-hydrazinomethyl)-biphenyl-4-yl]-2-oxo-oxazolidin-5-(S)-ylmethyl}-acetamide] | 0.5 µg/mL (≈ 1.11 µM) |
| CC(=O)NC[C@H]1CN(c2ccc(-c3ccc(CN(C)Cc4cc(Cl)cc(Cl)c4)cc3)c(F)c2)C(=O)O1 [Compound 4046, N-[3-(4′-{[(3,5-Dichloro-benzyl)-methyl-amino]-methyl}-2-fluoro-biphenyl-4-yl)-2-oxo-oxazolidin-5-(S)-ylmethyl]-acetamide] | 4 µg/mL (≈ 7.54 µM) |
| CC(=O)NC[C@H]1CN(c2ccc(-c3ccc(CNCc4ncc[nH]4)cc3)c(F)c2)C(=O)O1 [Compound 4091, N-[3-(2-Fluoro-4′-{[(1H-imidazol-2-ylmethyl)-amino]-methyl}-biphenyl-4-yl)-2-oxo-oxazolidin-5-(S)-ylmethyl]-acetamide] | 8 µg/mL (≈ 18.3 µM) |
| CC(=O)NC[C@H]1CN(c2ccc(-c3ccc(CN(C)Cc4cnc[nH]4)cc3)c(F)c2)C(=O)O1 [Compound 4067, N-[3-(2-Fluoro-4′-{[(3H-imidazol-4-ylmethyl)-methyl-amino]-methyl}-biphenyl-4-yl)-2-oxo-oxazolidin-5-(S)-ylmethyl]-acetamide] | 4 µg/mL (≈ 8.86 µM) |
| CC(=O)NC[C@H]1CN(c2ccc(-c3ccc(C(=O)NCc4ccccn4)nc3)c(F)c2)C(=O)O1 [Compound 4187, 5-{4-[5-(S)-(Acetylamino-methyl)-2-oxo-oxazolidin-3-yl]-2-fluoro-phenyl}-pyridine-2-carboxylic acid (pyridin-2-ylmethyl)-amide] | 1 µg/mL (≈ 2.16 µM) |
| CC(=O)NC[C@H]1CN(c2ccc(-c3ccc(CSc4ccccn4)cc3)c(F)c2)C(=O)O1 [Compound 2018, N-{3-[2-Fluoro-4′-(pyridin-2-ylsulfanylmethyl)-biphenyl-4-yl]-2-oxo-oxazolidin-5-(S)-ylmethyl}-acetamide] | 0.25 µg/mL (≈ 0.554 µM) |
| CC(=O)NC[C@H]1CN(c2ccc(-c3ccc(CNCCc4c[nH]cn4)cc3)c(F)c2)C(=O)O1 [Compound 4227, N-[3-(2-Fluoro-4′-{[2-(1H-imidazol-4-yl)-ethylamino]-methyl}-biphenyl-4-yl)-2-oxo-oxazolidin-5-(S)-ylmethyl]-acetamide] | 4 µg/mL (≈ 8.86 µM) |
| CC(=O)NC[C@H]1CN(c2ccc(-c3ccc(CN(C)Cc4c(C)nc(O)nc4O)cc3)c(F)c2)C(=O)O1 [Compound 4036, N-[3-(4′-{[(2,4-Dihydroxy-6-methyl-pyrimidin-5-ylmethyl)-methyl-amino]-methyl}-2-fluoro-biphenyl-4-yl)-2-oxo-oxazolidin-5-(S)-ylmethyl]-acetamide] | 4 µg/mL (≈ 7.85 µM) |
| CC(=O)NC[C@H]1CN(c2ccc(-c3ccc(CN4CCN(CC#N)CC4)cc3)c(F)c2)C(=O)O1 [Compound 1004, N-{3-[4′-(4-Cyanomethyl-piperazin-1-ylmethyl)-2-fluoro-biphenyl-4-yl]-2-oxo-oxazolidin-5-(S)-ylmethyl}-acetamide] | 2 µg/mL (≈ 4.3 µM) |
| CSCCNc1ncnc2c1ncn2Cc1ccc(-c2ccc(N3C[C@H](CNC(C)=O)OC3=O)cc2F)cc1 [Compound 1108] | 2 µg/mL (≈ 3.64 µM) |
| CC(=O)NC[C@H]1CN(c2ccc(-c3ccc(CNCCn4ccnn4)cc3)c(F)c2)C(=O)O1 [Compound 4262, N-(3-{2-Fluoro-4′-[(2-[1,2,3]triazol-1-yl-ethylamino)-methyl]-biphenyl-4-yl}-2-oxo-oxazolidin-5-(S)-ylmethyl)-acetamide] | 2 µg/mL (≈ 4.42 µM) |
| CC(=O)NC[C@H]1CN(c2ccc(-c3ccc(CNCc4cccnc4N)cc3)c(F)c2)C(=O)O1 [Compound 4152, N-[3-(4′-{[(2-Amino-pyridin-3-ylmethyl)-amino]-methyl}-2-fluoro-biphenyl-4-yl)-2-oxo-oxazolidin-5-(S)-ylmethyl]-acetamide] | 2 µg/mL (≈ 4.31 µM) |
| CO/N=C(\CNCc1cocn1)c1ccc(-c2ccc(N3C[C@H](CNC(C)=O)OC3=O)cc2F)cc1 [Compound 4255, N-[3-(2-Fluoro-4′-{1-methoxyimino-2-[(oxazol-4-ylmethyl)-amino]-ethyl}-biphenyl-4-yl)-2-oxo-oxazolidin-5-(S)-ylmethyl]-acetamide] | 2 µg/mL (≈ 4.04 µM) |
| CC(=O)NC[C@H]1CN(c2ccc(-c3ccc(CNC(=O)c4csc(C)n4)cc3)c(F)c2)C(=O)O1 [Compound 4242, 2-Methyl-thiazole-4-carboxylic acid {4′-[5-(S)-(acetylamino-methyl)-2-oxo-oxazolidin-3-yl]-2′-fluoro-biphenyl-4-ylmethyl}-amide] | 2 µg/mL (≈ 4.14 µM) |
| CC(=O)NC[C@H]1CN(c2ccc(-c3ccc(CNCc4cncc5ccccc45)cc3)c(F)c2)C(=O)O1 [Compound 4060, N-[3-(2-Fluoro-4′-{[(isoquinolin-4-ylmethyl)-amino]-methyl}-biphenyl-4-yl)-2-oxo-oxazolidin-5-(S)-ylmethyl]-acetamide] | 2 µg/mL (≈ 4.01 µM) |

| Compound | MIC |
| --- | --- |
| CC(=O)NC[C@H]1CN(c2ccc(-c3ccc(CNC(=O)c4ccc5cc[nH]c5c4)cc3)c(F)c2)C(=O)O1 [Compound 4011, 1H-Indole-6-carboxylic acid {4′-[5-(S)-(acetylamino-methyl)-2-oxo-oxazolidin-3-yl]-2′-fluoro-biphenyl-4-ylmethyl}-amide] | 1 µg/mL (≈ 2 µM) |
| CC(=O)NC[C@H]1CN(c2ccc(-c3ccc(CNCc4nc(C)no4)cc3)c(F)c2)C(=O)O1 [Compound 4140, N-[3-(2-Fluoro-4′-{[(3-methyl-[1,2,4]oxadiazol-5-ylmethyl)-amino]-methyl}-biphenyl-4-yl)-2-oxo-oxazolidin-5-(S)-ylmethyl]-acetamide] | 2 µg/mL (≈ 4.41 µM) |
| CC(=O)NC[C@H]1CN(c2ccc(-c3ccc(C(N)c4nnn(C)n4)cc3)c(F)c2)C(=O)O1 (mixture of isomers) [Compound 1042, N-(3-{4′-[Amino-(2-methyl-2H-tetrazol-5-(R/S)-yl)-methyl]-2-fluoro-biphenyl-4-yl}-2-oxo-oxazolidin-5-(S)-ylmethyl)-acetamide] | 64 µg/mL (≈ 146 µM) |
| CC(=O)NC[C@H]1CN(c2ccc(-c3ccc(Cc4nnn[nH]4)cc3)c(F)c2)C(=O)O1 [Compound 1007, N-{3-[2-Fluoro-4′-(1H-tetrazol-5-(S)-ylmethyl)-biphenyl-4-yl]-2-oxo-oxazolidin-5-(S)-ylmethyl}-acetamide] | 8 µg/mL (≈ 19.5 µM) |
| CC(=O)NC[C@H]1CN(c2ccc(-c3ccc(CNC(=O)[C@H](N)Cc4c[nH]c5ccccc45)cc3)c(F)c2)C(=O)O1 [Compound 4307, N-{4′-[5-(S)-(Acetylamino-methyl)-2-oxo-oxazolidin-3-yl]-2′-fluoro-biphenyl-4-ylmethyl}-2-(R)-amino-3-(1H-indol-3-yl)-propionamide] | 2 µg/mL (≈ 3.68 µM) |
| CC(=O)NC[C@H]1CN(c2ccc(-c3ccc(C(=O)NCc4ccco4)cc3)c(F)c2)C(=O)O1 [Compound 4111, 4′-[5-(S)-(Acetylamino-methyl)-2-oxo-oxazolidin-3-yl]-2′-fluoro-biphenyl-4-carboxylic acid (furan-2-ylmethyl)-amide] | 2 µg/mL (≈ 4.43 µM) |
| CC(=O)NC[C@H]1CN(c2ccc(-c3ccc(CS(=O)(=O)c4nnnn4C)cc3)c(F)c2)C(=O)O1 [Compound 2024, N-{3-[2-Fluoro-4′-(1-methyl-1H-tetrazole-5-sulfonylmethyl)-biphenyl-4-yl]-2-oxo-oxazolidin-5-(S)-ylmethyl}-acetamide] | 0.25 µg/mL (≈ 0.512 µM) |
| CC(=O)NC[C@H]1CN(c2ccc(-c3ccc(CNCCN4CCOCC4)cc3)c(F)c2)C(=O)O1 [Compound 4318, N-(3-{2-Fluoro-4′-[(2-morpholin-4-yl-ethylamino)-methyl]-biphenyl-4-yl}-2-oxo-oxazolidin-5-(S)-ylmethyl)-acetamide] | 16 µg/mL (≈ 34 µM) |
| CC(=O)NC[C@H]1CN(c2ccc(-c3ccc(Cn4cnc5c(Cl)ncnc54)cc3)c(F)c2)C(=O)O1 [Compound 1100, N-{3-[4′-(6-Chloro-purin-9-ylmethyl)-2-fluoro-biphenyl-4-yl]-2-oxo-oxazolidin-5-(S)-ylmethyl}-acetamide] | 1 µg/mL (≈ 2.02 µM) |
| CC(=O)NC[C@H]1CN(c2ccc(-c3ccc(CNCCCN4CCCC4=O)cc3)c(F)c2)C(=O)O1 [Compound 4156, N-[3-(2-Fluoro-4′-{[3-(2-oxo-pyrrolidin-1-yl)-propylamino]-methyl}-biphenyl-4-yl)-2-oxo-oxazolidin-5-(S)-ylmethyl]-acetamide] | 16 µg/mL (≈ 33.2 µM) |
| CC(=O)NC[C@H]1CN(c2ccc(-c3ccc(C(=O)NCc4ccccn4)cc3)c(F)c2)C(=O)O1 [Compound 4110, 4′-[5-(S)-(Acetylamino-methyl)-2-oxo-oxazolidin-3-yl]-2′-fluoro-biphenyl-4-carboxylic acid (pyridin-2-ylmethyl)-amide] | 0.25 µg/mL (≈ 0.541 µM) |
| CC(=O)NC[C@H]1CN(c2ccc(-c3ccc(CNC[C@H](O)CSc4nnc[nH]4)cc3)c(F)c2)C(=O)O1 [Compound 5011] | 4 µg/mL (≈ 7.77 µM) |
| CC(=O)NC[C@H]1CN(c2ccc(-c3ccc(Cn4cnc5c(NCCCF)ncnc54)cc3)c(F)c2)C(=O)O1 [Compound 1098, N-(3-{2-Fluoro-4′-[6-(3-fluoro-propylamino)-purin-9-ylmethyl]-biphenyl-4-yl}-2-oxo-oxazolidin-5-(S)-ylmethyl)-acetamide] | 2 µg/mL (≈ 3.73 µM) |
| CC(=O)NC[C@H]1CN(c2ccc(-c3ccc(CNCc4nnnn4C)cc3)c(F)c2)C(=O)O1 [Compound 4283, N-[3-(2-Fluoro-4′-{[(1-methyl-1H-tetrazol-5-ylmethyl)-amino]-methyl}-biphenyl-4-yl)-2-oxo-oxazolidin-5-(S)-ylmethyl]-acetamide] | 0.25 µg/mL (≈ 0.551 µM) |
| CC(=O)NC[C@H]1CN(c2ccc(-c3ccc(CSc4nc(C)cs4)cc3)c(F)c2)C(=O)O1 [Compound 2031, N-{3-[2-Fluoro-4′-(4-methyl-thiazol-2-ylsulfanylmethyl)-biphenyl-4-yl]-2-oxo-oxazolidin-5-(S)-ylmethyl}-acetamide] | 1 µg/mL (≈ 2.12 µM) |
| CC(=O)NC[C@H]1CN(c2ccc(-c3ccc(CN(C)Cc4ccnc5ccccc45)cc3)c(F)c2)C(=O)O1 [Compound 4032, N-(3-{2-Fluoro-4′-[(methyl-quinolin-4-ylmethyl-amino)-methyl]-biphenyl-4-yl}-2-oxo-oxazolidin-5-(S)-ylmethyl)-acetamide] | 1 µg/mL (≈ 1.95 µM) |
